Test results: US10752616B2, “Bicycloheteroaryl-heteroaryl-benzoic acid compounds as retinoic acid receptor beta (RARβ) agonists” (King's College London, priority 2014, dated 2020)

biological target: RARβ (Mus musculus (Mouse), UniProt P22605); test: Transactivation assay for RARβ (gal4-RAR fusion, pFR-luc reporter, COS-7 cells), Table 2; assay type: cell-based; conditions: COS-7 reporter, mean of three or more determinations, species not stated (method: mouse or human)
Procedure: (§1) Transcriptional transactivation assays were performed with gal4 fusion receptor constructs, created using each of the RAR ligand binding domains of either mouse or human, co-transfected with the pFR-luc (Stratagene) reporter construct in COS-7 cells.
(§2) Briefly, on day 1, 96 well plates were seeded with 8000 cells per well then left to recover overnight. On day 2, the cells were co-transfected with 100 ng of reporter plasmid and 10 ng of the appropriate receptor plasmid per well using lipofectamine (Invitrogen). On day 3, the lipofectamine containing media was replaced by a DMEM without phenol red, followed by the addition of test compound dissolved in 1 μL of DMSO to each well's 100 μL total volume. Finally, on day 4, the cells were lysed and their luciferase substrate was provided by the BrightGlo™ reagent (Promega), the plates were then read on the MicroBeta TriLux™ (Perkin Elmer).
(§3) Data for test compounds are quoted as EC50 values. Where replicate data has been generated, the data are quoted as the mean EC50 from the separate experiments.
(§4) EC50's values are reported as mean values of three or more determinations.

Sequence of RARβ (P22605 210-444): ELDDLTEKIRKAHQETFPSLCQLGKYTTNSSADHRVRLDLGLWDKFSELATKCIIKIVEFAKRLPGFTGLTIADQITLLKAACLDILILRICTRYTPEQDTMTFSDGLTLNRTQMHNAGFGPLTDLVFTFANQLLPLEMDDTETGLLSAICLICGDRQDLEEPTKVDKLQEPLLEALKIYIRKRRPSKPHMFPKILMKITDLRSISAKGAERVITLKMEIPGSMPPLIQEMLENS

| EC50 [nM] | SMILES |
| --- | --- |
| 17 | Cc1ccc(C)c2oc(-c3noc(-c4ccc(C(=O)O)cc4Cl)n3)cc12 [BHBA-031, 3-Chloro-4-(3-(4,7-dimethylbenzofuran-2-yl)-1,2,4-oxadiazol-5-yl)benzoic acid] |
| 8.1 | Cc1cc(-c2nc(-c3cc4c(C)ccc(C)c4o3)no2)ccc1C(=O)O [BHBA-032, 4-(3-(4,7-Dimethylbenzofuran-2-yl)-1,2,4-oxadiazol-5-yl)-2-methylbenzoic acid] |
| 13 | Cc1ccc(C)c2oc(-c3noc(-c4ccc(C(=O)O)c(F)c4)n3)cc12 [BHBA-033, 4-(3-(4,7-Dimethylbenzofuran-2-yl)-1,2,4-oxadiazol-5-yl)-2-fluorobenzoic acid] |
| 20 | Cc1ccc(C)c2oc(-c3nnc(-c4ccc(C(=O)O)cc4)o3)cc12 [BHBA-034, 4-(5-(4,7-Dimethylbenzofuran-2-yl)-1,3,4-oxadiazol-2-yl)benzoic acid] |
| 67 | Cc1cc(C(=O)O)ccc1-c1nnc(-c2cc3c(C)ccc(C)c3o2)o1 [BHBA-035, 4-(5-(4,7-Dimethylbenzofuran-2-yl)-1,3,4-oxadiazol-2-yl)-3-methylbenzoic acid] |
| 28 | Cc1ccc(C)c2oc(-c3nnc(-c4ccc(C(=O)O)cc4Cl)o3)cc12 [BHBA-036, 3-Chloro-4-(5-(4,7-dimethylbenzofuran-2-yl)-1,3,4-oxadiazol-2-yl)benzoic acid] |
| 45 | Cc1ccc(C)c2oc(-c3nnc(-c4ccc(C(=O)O)c(F)c4)o3)cc12 [BHBA-037, 4-(5-(4,7-Dimethylbenzofuran-2-yl)-1,3,4-oxadiazol-2-yl)-2-fluorobenzoic acid] |
| 5.1 | Cc1ccc(C)c2oc(-c3nc(-c4ccc(C(=O)O)cc4)ns3)cc12 [BHBA-038, 4-(5-(4,7-Dimethylbenzofuran-2-yl)-1,2,4-thiadiazol-3-yl)benzoic acid] |
| 3.6 | Cc1ccc(C)c2oc(-c3nc(-c4ccc(C(=O)O)cc4Cl)ns3)cc12 [BHBA-039, 3-Chloro-4-(5-(4,7-dimethylbenzofuran-2-yl)-1,2,4-thiadiazol-3-yl)benzoic acid] |
| 11 | Cc1cc(-c2nsc(-c3cc4c(C)ccc(C)c4o3)n2)ccc1C(=O)O [BHBA-040, 4-(5-(4,7-Dimethylbenzofuran-2-yl)-1,2,4-thiadiazol-3-yl)-2-methylbenzoic acid] |
| 4.3 | Cc1ccc(C)c2oc(-c3nc(-c4ccc(C(=O)O)c(F)c4)ns3)cc12 [BHBA-041, 4-(5-(4,7-Dimethylbenzofuran-2-yl)-1,2,4-thiadiazol-3-yl)-2-fluorobenzoic acid] |

biological target: RARα (Mus musculus (Mouse), UniProt P11416); test: Transactivation assay for RARα (gal4-RAR fusion, pFR-luc reporter, COS-7 cells), Table 2; assay type: cell-based; conditions: Table 2; COS-7 reporter; mean of three or more determinations; inactive = no agonist action at highest concentration tested
Sequence (P11416 183-417): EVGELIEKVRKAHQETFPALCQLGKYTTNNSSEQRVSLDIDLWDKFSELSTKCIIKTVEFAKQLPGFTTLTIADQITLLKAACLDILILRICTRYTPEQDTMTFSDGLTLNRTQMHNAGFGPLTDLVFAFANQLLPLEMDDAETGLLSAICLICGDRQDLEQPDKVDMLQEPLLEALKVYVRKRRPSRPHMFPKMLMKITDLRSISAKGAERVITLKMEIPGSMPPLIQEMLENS
Procedure: as §1, §2, §3, §4

| EC50 [nM] | SMILES |
| --- | --- |
| 150 | Cc1ccc(C)c2oc(-c3noc(-c4ccc(C(=O)O)cc4Cl)n3)cc12 [BHBA-031, 3-Chloro-4-(3-(4,7-dimethylbenzofuran-2-yl)-1,2,4-oxadiazol-5-yl)benzoic acid] |
| 150 | Cc1cc(-c2nc(-c3cc4c(C)ccc(C)c4o3)no2)ccc1C(=O)O [BHBA-032, 4-(3-(4,7-Dimethylbenzofuran-2-yl)-1,2,4-oxadiazol-5-yl)-2-methylbenzoic acid] |
| 45 | Cc1ccc(C)c2oc(-c3noc(-c4ccc(C(=O)O)c(F)c4)n3)cc12 [BHBA-033, 4-(3-(4,7-Dimethylbenzofuran-2-yl)-1,2,4-oxadiazol-5-yl)-2-fluorobenzoic acid] |
| 92 | Cc1ccc(C)c2oc(-c3nnc(-c4ccc(C(=O)O)cc4)o3)cc12 [BHBA-034, 4-(5-(4,7-Dimethylbenzofuran-2-yl)-1,3,4-oxadiazol-2-yl)benzoic acid] |
| 91 | Cc1cc(C(=O)O)ccc1-c1nnc(-c2cc3c(C)ccc(C)c3o2)o1 [BHBA-035, 4-(5-(4,7-Dimethylbenzofuran-2-yl)-1,3,4-oxadiazol-2-yl)-3-methylbenzoic acid] |
| 225 | Cc1ccc(C)c2oc(-c3nnc(-c4ccc(C(=O)O)cc4Cl)o3)cc12 [BHBA-036, 3-Chloro-4-(5-(4,7-dimethylbenzofuran-2-yl)-1,3,4-oxadiazol-2-yl)benzoic acid] |
| 91 | Cc1ccc(C)c2oc(-c3nnc(-c4ccc(C(=O)O)c(F)c4)o3)cc12 [BHBA-037, 4-(5-(4,7-Dimethylbenzofuran-2-yl)-1,3,4-oxadiazol-2-yl)-2-fluorobenzoic acid] |
| 19 | Cc1ccc(C)c2oc(-c3nc(-c4ccc(C(=O)O)cc4)ns3)cc12 [BHBA-038, 4-(5-(4,7-Dimethylbenzofuran-2-yl)-1,2,4-thiadiazol-3-yl)benzoic acid] |
| 65 | Cc1ccc(C)c2oc(-c3nc(-c4ccc(C(=O)O)cc4Cl)ns3)cc12 [BHBA-039, 3-Chloro-4-(5-(4,7-dimethylbenzofuran-2-yl)-1,2,4-thiadiazol-3-yl)benzoic acid] |
| 72 | Cc1cc(-c2nsc(-c3cc4c(C)ccc(C)c4o3)n2)ccc1C(=O)O [BHBA-040, 4-(5-(4,7-Dimethylbenzofuran-2-yl)-1,2,4-thiadiazol-3-yl)-2-methylbenzoic acid] |
| 20 | Cc1ccc(C)c2oc(-c3nc(-c4ccc(C(=O)O)c(F)c4)ns3)cc12 [BHBA-041, 4-(5-(4,7-Dimethylbenzofuran-2-yl)-1,2,4-thiadiazol-3-yl)-2-fluorobenzoic acid] |

same assay, conditions: fold-selectivity for RARβ over RARα; >1 = selective for RARβ

| RARα/RARβ ratio | SMILES |
| --- | --- |
| 8.8 | Cc1ccc(C)c2oc(-c3noc(-c4ccc(C(=O)O)cc4Cl)n3)cc12 [BHBA-031, 3-Chloro-4-(3-(4,7-dimethylbenzofuran-2-yl)-1,2,4-oxadiazol-5-yl)benzoic acid] |
| 18.5 | Cc1cc(-c2nc(-c3cc4c(C)ccc(C)c4o3)no2)ccc1C(=O)O [BHBA-032, 4-(3-(4,7-Dimethylbenzofuran-2-yl)-1,2,4-oxadiazol-5-yl)-2-methylbenzoic acid] |
| 3.5 | Cc1ccc(C)c2oc(-c3noc(-c4ccc(C(=O)O)c(F)c4)n3)cc12 [BHBA-033, 4-(3-(4,7-Dimethylbenzofuran-2-yl)-1,2,4-oxadiazol-5-yl)-2-fluorobenzoic acid] |
| 4.6 | Cc1ccc(C)c2oc(-c3nnc(-c4ccc(C(=O)O)cc4)o3)cc12 [BHBA-034, 4-(5-(4,7-Dimethylbenzofuran-2-yl)-1,3,4-oxadiazol-2-yl)benzoic acid] |
| 1.3 | Cc1cc(C(=O)O)ccc1-c1nnc(-c2cc3c(C)ccc(C)c3o2)o1 [BHBA-035, 4-(5-(4,7-Dimethylbenzofuran-2-yl)-1,3,4-oxadiazol-2-yl)-3-methylbenzoic acid] |
| 8 | Cc1ccc(C)c2oc(-c3nnc(-c4ccc(C(=O)O)cc4Cl)o3)cc12 [BHBA-036, 3-Chloro-4-(5-(4,7-dimethylbenzofuran-2-yl)-1,3,4-oxadiazol-2-yl)benzoic acid] |
| 2 | Cc1ccc(C)c2oc(-c3nnc(-c4ccc(C(=O)O)c(F)c4)o3)cc12 [BHBA-037, 4-(5-(4,7-Dimethylbenzofuran-2-yl)-1,3,4-oxadiazol-2-yl)-2-fluorobenzoic acid] |
| 3.7 | Cc1ccc(C)c2oc(-c3nc(-c4ccc(C(=O)O)cc4)ns3)cc12 [BHBA-038, 4-(5-(4,7-Dimethylbenzofuran-2-yl)-1,2,4-thiadiazol-3-yl)benzoic acid] |
| 4.6 | Cc1ccc(C)c2oc(-c3nc(-c4ccc(C(=O)O)c(F)c4)ns3)cc12 [BHBA-041, 4-(5-(4,7-Dimethylbenzofuran-2-yl)-1,2,4-thiadiazol-3-yl)-2-fluorobenzoic acid] |

biological target: RARγ (Mus musculus (Mouse), UniProt P18911); test: Transactivation assay for RARγ (gal4-RAR fusion, pFR-luc reporter, COS-7 cells), Table 2; assay type: cell-based; conditions: Table 2; COS-7 reporter; mean of three or more determinations; inactive = no agonist action at highest concentration tested
Sequence (P18911 185-419): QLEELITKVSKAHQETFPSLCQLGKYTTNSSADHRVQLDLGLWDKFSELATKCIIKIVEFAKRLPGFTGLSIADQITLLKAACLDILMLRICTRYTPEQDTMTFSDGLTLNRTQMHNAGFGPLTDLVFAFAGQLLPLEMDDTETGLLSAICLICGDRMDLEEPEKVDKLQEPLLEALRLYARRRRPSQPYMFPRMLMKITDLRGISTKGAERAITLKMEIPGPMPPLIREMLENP
Procedure: as §1, §2, §3, §4

| EC50 [nM] | SMILES |
| --- | --- |
| 42 | Cc1ccc(C)c2oc(-c3noc(-c4ccc(C(=O)O)cc4Cl)n3)cc12 [BHBA-031, 3-Chloro-4-(3-(4,7-dimethylbenzofuran-2-yl)-1,2,4-oxadiazol-5-yl)benzoic acid] |
| 22 | Cc1cc(-c2nc(-c3cc4c(C)ccc(C)c4o3)no2)ccc1C(=O)O [BHBA-032, 4-(3-(4,7-Dimethylbenzofuran-2-yl)-1,2,4-oxadiazol-5-yl)-2-methylbenzoic acid] |
| 23 | Cc1ccc(C)c2oc(-c3noc(-c4ccc(C(=O)O)c(F)c4)n3)cc12 [BHBA-033, 4-(3-(4,7-Dimethylbenzofuran-2-yl)-1,2,4-oxadiazol-5-yl)-2-fluorobenzoic acid] |
| 58 | Cc1ccc(C)c2oc(-c3nnc(-c4ccc(C(=O)O)cc4)o3)cc12 [BHBA-034, 4-(5-(4,7-Dimethylbenzofuran-2-yl)-1,3,4-oxadiazol-2-yl)benzoic acid] |
| 83 | Cc1cc(C(=O)O)ccc1-c1nnc(-c2cc3c(C)ccc(C)c3o2)o1 [BHBA-035, 4-(5-(4,7-Dimethylbenzofuran-2-yl)-1,3,4-oxadiazol-2-yl)-3-methylbenzoic acid] |
| 58 | Cc1ccc(C)c2oc(-c3nnc(-c4ccc(C(=O)O)cc4Cl)o3)cc12 [BHBA-036, 3-Chloro-4-(5-(4,7-dimethylbenzofuran-2-yl)-1,3,4-oxadiazol-2-yl)benzoic acid] |
| 60 | Cc1ccc(C)c2oc(-c3nnc(-c4ccc(C(=O)O)c(F)c4)o3)cc12 [BHBA-037, 4-(5-(4,7-Dimethylbenzofuran-2-yl)-1,3,4-oxadiazol-2-yl)-2-fluorobenzoic acid] |
| 6.1 | Cc1ccc(C)c2oc(-c3nc(-c4ccc(C(=O)O)cc4)ns3)cc12 [BHBA-038, 4-(5-(4,7-Dimethylbenzofuran-2-yl)-1,2,4-thiadiazol-3-yl)benzoic acid] |
| 13 | Cc1ccc(C)c2oc(-c3nc(-c4ccc(C(=O)O)cc4Cl)ns3)cc12 [BHBA-039, 3-Chloro-4-(5-(4,7-dimethylbenzofuran-2-yl)-1,2,4-thiadiazol-3-yl)benzoic acid] |
| 130 | Cc1cc(-c2nsc(-c3cc4c(C)ccc(C)c4o3)n2)ccc1C(=O)O [BHBA-040, 4-(5-(4,7-Dimethylbenzofuran-2-yl)-1,2,4-thiadiazol-3-yl)-2-methylbenzoic acid] |
| 4.7 | Cc1ccc(C)c2oc(-c3nc(-c4ccc(C(=O)O)c(F)c4)ns3)cc12 [BHBA-041, 4-(5-(4,7-Dimethylbenzofuran-2-yl)-1,2,4-thiadiazol-3-yl)-2-fluorobenzoic acid] |

same assay, conditions: fold-selectivity for RARβ over RARγ; >1 = selective for RARβ

| RARγ/RARβ ratio | SMILES |
| --- | --- |
| 2.5 | Cc1ccc(C)c2oc(-c3noc(-c4ccc(C(=O)O)cc4Cl)n3)cc12 [BHBA-031, 3-Chloro-4-(3-(4,7-dimethylbenzofuran-2-yl)-1,2,4-oxadiazol-5-yl)benzoic acid] |
| 2.7 | Cc1cc(-c2nc(-c3cc4c(C)ccc(C)c4o3)no2)ccc1C(=O)O [BHBA-032, 4-(3-(4,7-Dimethylbenzofuran-2-yl)-1,2,4-oxadiazol-5-yl)-2-methylbenzoic acid] |
| 1.8 | Cc1ccc(C)c2oc(-c3noc(-c4ccc(C(=O)O)c(F)c4)n3)cc12 [BHBA-033, 4-(3-(4,7-Dimethylbenzofuran-2-yl)-1,2,4-oxadiazol-5-yl)-2-fluorobenzoic acid] |
| 2.9 | Cc1ccc(C)c2oc(-c3nnc(-c4ccc(C(=O)O)cc4)o3)cc12 [BHBA-034, 4-(5-(4,7-Dimethylbenzofuran-2-yl)-1,3,4-oxadiazol-2-yl)benzoic acid] |
| 1.2 | Cc1cc(C(=O)O)ccc1-c1nnc(-c2cc3c(C)ccc(C)c3o2)o1 [BHBA-035, 4-(5-(4,7-Dimethylbenzofuran-2-yl)-1,3,4-oxadiazol-2-yl)-3-methylbenzoic acid] |
| 2.1 | Cc1ccc(C)c2oc(-c3nnc(-c4ccc(C(=O)O)cc4Cl)o3)cc12 [BHBA-036, 3-Chloro-4-(5-(4,7-dimethylbenzofuran-2-yl)-1,3,4-oxadiazol-2-yl)benzoic acid] |
| 1.3 | Cc1ccc(C)c2oc(-c3nnc(-c4ccc(C(=O)O)c(F)c4)o3)cc12 [BHBA-037, 4-(5-(4,7-Dimethylbenzofuran-2-yl)-1,3,4-oxadiazol-2-yl)-2-fluorobenzoic acid] |
| 1.2 | Cc1ccc(C)c2oc(-c3nc(-c4ccc(C(=O)O)cc4)ns3)cc12 [BHBA-038, 4-(5-(4,7-Dimethylbenzofuran-2-yl)-1,2,4-thiadiazol-3-yl)benzoic acid] |
| 1.0 | Cc1ccc(C)c2oc(-c3nc(-c4ccc(C(=O)O)c(F)c4)ns3)cc12 [BHBA-041, 4-(5-(4,7-Dimethylbenzofuran-2-yl)-1,2,4-thiadiazol-3-yl)-2-fluorobenzoic acid] |
